The nature of data set [1]: Plasma concentration in CD1 mouse at 1 mg/kg, iv administered as single dose measured after 5 mins. Type of data set: ADME, organism-based. Details: dose 1 mg/kg, route intravenous.
The nature of data set [2]: Toxicity in iv dosed CD1 mouse administered Q2D for 8 days. Particulars: CD1, mouse, in vivo. Type of data set: organism-based.
Data set [3] can be described thus: Plasma concentration in CD1 mouse at 1 mg/kg, iv administered as single dose measured after 30 mins. Type of data set: ADME, organism-based. Details: dose 1 mg/kg, route intravenous.
A short description of data set [4]: Plasma concentration in CD1 mouse at 1 mg/kg, iv administered as single dose measured after 120 mins. Type of data set: ADME, organism-based. Details: dose 1 mg/kg, route intravenous.

Molecules are shown by their SMILES.

`CO[C@H](C(=O)[C@@H](O)[C@@H](C)O)[C@@H]1Cc2cc3cc(O[C@H]4C[C@@H](O[C@H]5C[C@@H](O)[C@H](O)[C@@H](C)O5)[C@H](O)[C@@H](C)O4)c(C)c(O)c3c(O)c2C(=O)[C@H]1O[C@H]1C[C@@H](O[C@H]2C[C@@H](O[C@H]3C[C@](C)(O)[C@H](O)[C@@H](C)O3)[C@@H](O)[C@@H](C)O2)[C@H](O)[C@@H](C)O1` [PLICAMYCIN]: the concentration at 5 min in data set [1] is 2.7 µM. In addition, the MTD at 192 h in data set [2] amounted to 0.6 mg/kg. This molecule also had a concentration at 0.5 h in data set [3] of 0.2 µM. This molecule also had a concentration at 2 h in data set [4] below 0.1 µM.
